Source: patent publication US5627203A, “Tricyclic oxime ethers” (Adir et Compagnie, priority 1994, dated 1997)

Experiments:
5-HT1B receptors = biological target: T1, 5-HT1B receptors (Rattus norvegicus, UniProt P28564); test: Displacement of 5-hydroxytryptamine at 5-HT1B receptors; assay type: binding; settings: rat cortex, striatum, and globus pallidus homogenates
T1 construct: rat cortex, striatum, and globus pallidus homogenates; from tissue; host or cells: rat cortex, striatum and globus pallidus
T1 sequence (P28564 whole entry): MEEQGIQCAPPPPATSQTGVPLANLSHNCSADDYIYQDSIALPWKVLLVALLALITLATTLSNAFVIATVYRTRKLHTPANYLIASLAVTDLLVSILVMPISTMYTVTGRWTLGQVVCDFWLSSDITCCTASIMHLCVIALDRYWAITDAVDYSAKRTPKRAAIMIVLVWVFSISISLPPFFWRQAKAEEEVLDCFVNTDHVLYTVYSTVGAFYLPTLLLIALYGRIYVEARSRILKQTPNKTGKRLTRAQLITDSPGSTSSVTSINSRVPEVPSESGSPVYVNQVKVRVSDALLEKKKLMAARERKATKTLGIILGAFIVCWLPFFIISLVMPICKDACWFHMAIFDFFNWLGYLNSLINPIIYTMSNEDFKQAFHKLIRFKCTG
Method: (§1) A-2: Study of the binding of the compounds of the invention to the serotonin reuptake site as well as to 5-HT1, 5-HT1A, 5-HT1B, 5-HT1D, 5-HT2, 5-HT2C, 5-HT4 serotoninergic receptors.
(§2) The binding of the compounds of the invention is measured in accordance with conventional methods.
for 5-HT1B receptors, by the displacement of 5-hydroxytryptamine in rat cortex, striatum, and globus pallidus homogenates, […]

5-HT1A receptors = biological target: T2, 5-HT1A receptors (Rattus norvegicus, UniProt P19327); test: Displacement of 8-OH-DPAT at 5-HT1A receptors; assay type: binding; settings: rat hippocampus homogenates
T2 construct: rat hippocampus homogenates; from tissue; host or cells: rat hippocampus
T2 sequence (P19327 1-422): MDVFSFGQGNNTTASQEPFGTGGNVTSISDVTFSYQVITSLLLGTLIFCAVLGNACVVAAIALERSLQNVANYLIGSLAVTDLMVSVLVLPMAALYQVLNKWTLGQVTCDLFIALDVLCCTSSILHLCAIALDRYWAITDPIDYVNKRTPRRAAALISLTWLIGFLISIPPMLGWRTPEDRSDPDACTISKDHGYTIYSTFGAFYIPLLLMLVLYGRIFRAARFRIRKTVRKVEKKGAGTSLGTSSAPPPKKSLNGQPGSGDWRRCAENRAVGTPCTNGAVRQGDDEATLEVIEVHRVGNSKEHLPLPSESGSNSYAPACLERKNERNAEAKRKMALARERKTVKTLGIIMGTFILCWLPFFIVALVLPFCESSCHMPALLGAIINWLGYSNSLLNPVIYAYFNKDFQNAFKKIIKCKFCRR
Method: as §1, §2
for 5-HT1A receptors, by the displacement of 8-OH-DPAT in rat hippocampus homogenates, […]

5-HT2C receptors = biological target: T3, 5-HT2C receptors (Rattus norvegicus, UniProt P08909); test: Displacement of N-methylmesulergine at 5-HT2C receptors; assay type: binding; settings: rat frontal cortex and hippocampus homogenates
T3 construct: rat frontal cortex and hippocampus homogenates; from tissue; host or cells: rat frontal cortex and hippocampus
T3 sequence (P08909 33-460): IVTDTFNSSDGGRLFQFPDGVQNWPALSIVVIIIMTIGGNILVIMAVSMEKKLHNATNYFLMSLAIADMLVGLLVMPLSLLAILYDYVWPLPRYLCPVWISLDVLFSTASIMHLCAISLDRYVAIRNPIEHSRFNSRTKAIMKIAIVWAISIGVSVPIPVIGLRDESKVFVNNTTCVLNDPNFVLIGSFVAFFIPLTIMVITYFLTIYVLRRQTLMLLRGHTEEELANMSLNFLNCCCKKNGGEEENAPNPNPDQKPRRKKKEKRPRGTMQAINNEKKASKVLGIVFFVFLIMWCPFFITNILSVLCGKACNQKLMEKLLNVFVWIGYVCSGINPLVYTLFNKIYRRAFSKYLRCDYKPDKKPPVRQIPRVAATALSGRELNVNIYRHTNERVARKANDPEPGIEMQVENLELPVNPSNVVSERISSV
Method: as §1, §2
for 5-HT2C receptors, by the displacement of N-methylmesulergine in rat frontal cortex and hippocampus homogenates, […]

5-HT2 receptors = biological target: T4, 5-HT2 receptors (Rattus norvegicus, UniProt P14842); test: Displacement of aminoiodoketaneserine at 5-HT2 receptors; assay type: binding; settings: rat frontal cortex homogenates
T4 construct: rat frontal cortex homogenates; from tissue; host or cells: rat frontal cortex
T4 sequence (P14842 whole entry): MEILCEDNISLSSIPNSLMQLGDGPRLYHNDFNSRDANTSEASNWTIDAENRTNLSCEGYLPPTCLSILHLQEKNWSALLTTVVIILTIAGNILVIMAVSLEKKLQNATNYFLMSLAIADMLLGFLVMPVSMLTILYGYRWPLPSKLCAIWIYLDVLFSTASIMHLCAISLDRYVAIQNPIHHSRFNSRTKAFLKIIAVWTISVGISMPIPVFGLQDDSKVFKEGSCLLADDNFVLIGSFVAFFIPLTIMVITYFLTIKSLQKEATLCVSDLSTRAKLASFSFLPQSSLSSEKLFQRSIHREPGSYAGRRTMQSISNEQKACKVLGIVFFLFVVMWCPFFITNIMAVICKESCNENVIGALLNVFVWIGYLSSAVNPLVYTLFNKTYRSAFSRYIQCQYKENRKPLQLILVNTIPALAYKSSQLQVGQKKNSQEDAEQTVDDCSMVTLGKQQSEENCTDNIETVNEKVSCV
Method: as §1, §2
for 5-HT2 receptors, by the displacement of aminoiodoketaneserine in rat frontal cortex homogenates, […]

serotonin reuptake site = biological target: T5, serotonin reuptake site (Rattus norvegicus, UniProt P31652); test: Displacement of 3H-paroxetine at the serotonin reuptake site; assay type: binding; settings: rat brain without cerebellum, read-out: IC50, serotonin reuptake sites
T5 construct: rat brain from which the cerebellum has been removed; from tissue; host or cells: rat brain without cerebellum
T5 sequence (P31652 whole entry): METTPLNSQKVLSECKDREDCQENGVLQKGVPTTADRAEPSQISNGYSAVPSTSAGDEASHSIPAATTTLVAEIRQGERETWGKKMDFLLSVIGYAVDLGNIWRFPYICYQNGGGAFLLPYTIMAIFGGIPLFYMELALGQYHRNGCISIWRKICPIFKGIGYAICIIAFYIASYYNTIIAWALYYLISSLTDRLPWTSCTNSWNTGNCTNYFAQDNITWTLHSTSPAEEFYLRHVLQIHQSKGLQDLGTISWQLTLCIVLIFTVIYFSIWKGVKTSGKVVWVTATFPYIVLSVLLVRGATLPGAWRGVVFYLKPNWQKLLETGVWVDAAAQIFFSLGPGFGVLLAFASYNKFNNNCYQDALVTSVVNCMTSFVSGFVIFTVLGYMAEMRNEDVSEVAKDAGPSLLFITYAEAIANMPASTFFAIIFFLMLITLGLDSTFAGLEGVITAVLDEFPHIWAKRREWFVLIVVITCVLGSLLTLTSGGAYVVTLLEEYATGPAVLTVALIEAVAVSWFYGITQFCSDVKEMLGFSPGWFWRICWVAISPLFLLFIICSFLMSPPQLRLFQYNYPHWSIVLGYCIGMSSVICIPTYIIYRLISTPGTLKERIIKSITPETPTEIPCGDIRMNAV
Method: as §1, §2
for the serotonin reuptake site, by the displacement of ^3 H-paroxetinein rat brain from which the cerebellum has been removed, […]

5-HT3 receptors = biological target: T6, 5-HT3 receptors (Rattus norvegicus, UniProt P35563); test: Displacement of 3H-zacopride at 5-HT3 receptors; assay type: binding; settings: 0.3-0.4 nM 3H-zacopride, rat area postrema homogenates, pH 7.4, 25° C., 30 minutes
T6 construct: rat area postrema homogenates; from tissue; host or cells: rat area postrema
T6 sequence (P35563 24-483): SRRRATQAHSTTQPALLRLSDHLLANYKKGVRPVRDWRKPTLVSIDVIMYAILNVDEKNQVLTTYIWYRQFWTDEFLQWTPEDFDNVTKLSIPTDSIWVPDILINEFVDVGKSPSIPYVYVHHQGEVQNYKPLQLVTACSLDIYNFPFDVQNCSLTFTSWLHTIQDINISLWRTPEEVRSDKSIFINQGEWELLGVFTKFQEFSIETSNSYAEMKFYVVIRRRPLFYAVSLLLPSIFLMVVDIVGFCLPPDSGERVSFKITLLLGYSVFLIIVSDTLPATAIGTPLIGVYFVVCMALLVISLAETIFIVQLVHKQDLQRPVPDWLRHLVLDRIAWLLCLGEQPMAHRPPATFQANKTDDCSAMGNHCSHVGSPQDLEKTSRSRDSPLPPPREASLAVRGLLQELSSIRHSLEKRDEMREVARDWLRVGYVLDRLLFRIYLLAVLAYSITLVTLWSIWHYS
Method: A-1: Study of the binding of the compounds of the invention to 5-HT3 serotoninergic receptors
The binding of the compounds of the invention to 5-HT3 receptors was determined for each compound by measuring the displacement of ^3 H-zacopride (specific ligand for 5-HT3 receptors) in rat area postrema homogenates.
Aliquot amounts (50-100 μl) of a membrane suspension (2.5-5.0 mg of protein/cm^3) are incubated for 30 minutes at 25° C. in a Tris-HCl buffer, 25 mM, pH 7,4, in the presence of 0.3-0.4 nM 3^H -zacopride (83 ci/mmol) (total volume: 0.5 cm^3). The incubation is terminated by filtering the samples through Whatman GF/B filters which are then washed and dried. The radioactivity retained on the filters is finally calculated by spectrometry in liquid medium (Aquasol). The non-specific binding is evaluated under the same conditions using samples containing in addition 1 μM of ondansetron (5-HT3 antagonist). The displacement curves obtained by adding increasing concentrations of a test compound to the incubation medium are analysed to determine the affinity of the test compounds for 5-HT3 receptors.

5-HT1D receptors = test: Displacement of 5-OH-tryptamine at 5-HT1D receptors; assay type: binding; settings: rat cortex, striatum and globus pallidus homogenates
Method: as §1, §2
for 5-HT1D receptors, by the displacement of 5-OH-tryptamine in rat cortex, striatum and globus pallidus homogenates, […]

5-HT1 receptors = test: Displacement of 5-OH tryptamine at 5-HT1 receptors; assay type: binding; settings: pig frontal cortex and striatum
Method: as §1, §2
for 5-HT1 receptors, by the displacement of 5-OH tryptamine in pig frontal cortex and striatum, […]

mouse = test: Antidepressant activity: forced swimming test on the mouse; assay type: in vivo; settings: i.p. route, last 4 of 6 minutes
Method: The antidepressant effects of the compounds of the invention were studied in accordance with the forced swimming test on the mouse. (Behavioural despair in mice: a primary screening test for antidepressants, Porsolt R. D. et al, Arch. Int. Pharmacodyn., (1977), 229, pp. 327-336).
The animals are placed for 6 minutes in a cylinder containing water from which they cannot escape. The period of immobility of the animals is measured for the last 4 minutes of the test. The test compounds are administered in a single dose before the test (imipramine being used as the reference compound).

SMILES | IC50 (5-HT1B receptors) [µM] | IC50 (5-HT1A receptors) [µM] | IC50 (5-HT2C receptors) [µM] | IC50 (5-HT2 receptors) [µM] | IC50 (serotonin reuptake site) [µM] | IC50 (5-HT3 receptors) [µM] | IC50 (5-HT1D receptors) [µM] | IC50 (5-HT1 receptors) [µM] | Period of immobility expressed as a percentage by comparison with the control group (mouse; 32 mg/kg, **p < 0.01) [%] | Period of immobility expressed as a percentage by comparison with the control group (mouse; 64 mg/kg, ***p < 0.001) [%]
CN1CCCC1CON=C1c2sccc2-n2cccc21 (racemic) [Example 13] | 31 | > 100 | 1 | 14 | 0.6 | 0.002 | 11 | 16 |  | 
Cc1csc2c1-n1cccc1/C2=N/OCC(C)CN(C)C (stereo not drawn) [Example 23] | 24 | 52 | 2 | 14 | 5 | 0.0054 | 11 | 9.6 |  | 
CN(C)CCON=C1c2cc(Cl)ccc2-n2cccc21 [Example 49, 7-Chloro-9-{[2-(N,N-dimethylamino)ethoxy]imino}pyrrolo[1,2-a]indole] | 1.4 | 21 | 11 | 7.6 | 12 | 0.086 | 3.1 | 2.4 |  | 
Cc1ccc2c(c1)C(=NOCC(C)N(C)C)c1cccn1-2 (stereo not drawn) [Example 52] | 3.8 | 3.3 | 2.3 | 8.4 | 13 | 0.044 | 0.81 | 2 |  | 
CCN(CC)CCON=C1c2scc(C)c2-n2cccc21 [Example 15] | 6.4 | 21 | 0.84 | 13 | 0.13 | 0.005 | 4 | 11 |  | 
CN(C)CCON=C1c2ccccc2-n2cccc21 [Example 54] | 1.1 | 1.1 | 1.4 | 14 | 0.93 |  | 0.69 | 0.14 |  | 
Cc1ccc2c(c1)C(=NOCCC1CCCN1C)c1cccn1-2 (stereo not drawn) [Example 53] | 35 | 14 | 6 | 22 | 24 | 0.037 | 5.5 | 8.3 |  | 
Cc1csc2c1-n1cccc1/C2=N/OCCNCc1ccccc1 [Example 41, (Z)-3-Methyl-8-{[2-(N-benzylamino)ethoxy]imino}thieno[2,3-d]pyrrolo[1,2-a]-pyrrole] | 4.4 | 9.2 | 0.413 | 4.1 | 0.11 |  | 11 | 2.7 |  | 
Cc1csc2c1-n1cccc1C2=NOC(CCN(C)C)c1ccccc1 (stereo not drawn) [Example 39, 3-Methyl-8-{[3-(N,N-dimethylamino)-1-phenylprop-1-yloxy]imino}thieno-[2,3-d]pyrrolo[1,2-a]pyrrole] | > 100 | 11 | 0.061 | 2.2 | 0.072 | 0.2 | 6.7 | 10 | -53 | 
Cc1csc2c1-n1cccc1C2=NOCCN1CCCCC1 [Example 18] | 14 | 5.7 | 1.2 | 5.2 | 0.26 | 0.004 | 7.5 | 5.1 |  | 
CC(CON=C1c2ccccc2-n2cccc21)N(C)C (stereo not drawn) [Example 55] | 4.4 | 3.8 | 4.1 | 12 | 0.32 | 0.0053 | 1.4 | 2.8 |  | 
Cc1csc2c1-n1cccc1C2=NOCCN1CCCC1 [Example 17] | 3.6 | 1.6 | 0.71 | 3.7 | 0.3 | 0.002 | 3.2 | 3 |  | 
CN(C)CCON=C1c2sccc2-n2cccc21 [Example 4] | 0.61 | 0.48 | 0.82 | 5 | 0.89 |  | 0.41 | 0.55 |  | 
Cc1csc2c1-n1cccc1/C2=N/OCCCN(C)C [Example 14] | 32 | 22 | 18 | 42 | 1.1 |  | 7 | 11 |  | 
Cc1csc2c1-n1cccc1/C2=N/OCCN(C)C [Example 3, (Z)-8-{[2-(N,N-Dimethylamino)ethoxy]imino}-3-methylthieno[2,3-d]pyrrolo-[1,2-a]pyrrole] | 2.7 | 5.8 | 2.1 | 3.1 | 0.12 | 0.00011 | 0.48 | 2.2 | -39 | -86
Cc1csc2c1-n1cccc1/C2=N/OCCN [Example 40, (Z)-3-Methyl-8-[(2-amino-ethoxy)imino]thieno[2,3-d]pyrrolo[1,2-a]pyrrole] | 0.92 | 3.1 | 0.18 | 15 | 0.58 |  | 2.7 | 0.9 |  | 
